Reference: patent US11084808B2, “Oxopicolinamide derivative, preparation method therefor and pharmaceutical use thereof” (Jiangsu Hengrui Medicine Co., Ltd., priority 2016, dated 2021)

Tested on: human blood
Test: In vitro anticoagulant effect on human blood (APTT, CT2)
Assay type: biochemical
Settings: human plasma
Protocol: Test Example 2: Determination of In Vitro Anticoagulant Effect of the Compounds of the Present Invention on Human Blood
1. Experimental Materials
Plasma: Human blood was collected in blood collection tubes containing no anticoagulant, and then 3.8% sodium citrate (volume ratio 1:9) was added. The tubes were centrifuged at 2500 rpm for 10 minutes at room temperature, and then the plasma was collected and stored at −80° C.:
Reagents: APTT reagent (Activated partial thromboplastin time assay kit, SIEMENS, Art. No. B4218-1), calcium chloride solution;
Instrument: Coagulation instrument (SYSMEX, CA-500).
The divided plasma was melted at room temperature and mixed well. 10000 μM the test compound dissolved in 100% DMSO was diluted to 3000, 300, 200, 150, 75, 30, 10, 3, 0.3 μM with 100% DMSO, and the blank was 100% DMSO. The reagent, plasma, and compound were placed in corresponding positions in the coagulation instrument, and APTT detection of the compound was carried out.
Curve fitting was carried out by graphpad and CT2 was calculated, i.e., the concentration of the compound corresponding to 2 times the APTT of the blank control.

[1] = Table 2, concentration of the compound corresponding to 2 times the APTT of the blank control

Structure (SMILES) | CT2 (compound concentration doubling APTT) (Table 3 comparison with similar compounds in the published patents) | CT2 (compound concentration doubling APTT) [1]
COc1cn([C@@H](CCOC(C)(C)C)C(=O)Nc2ccc3nccnc3c2)c(=O)cc1-c1cc(Cl)ccc1-c1nc(C)no1 [Comparative Example 2, (S)-4-(tert-butoxy)-2-(4-(5-chloro-2-(3-methyl-1,2,4-oxadiazol-5-yl)phenyl)-5-methoxy-2-oxopyridin-1 (2H)-yl)-N-(quinoxalin-6-yl)butanamide, reference compound] | 13.1 µM | –
COCCC(C(=O)Nc1ccc2[nH]c(C(=O)O)cc2c1)n1cc(OC)c(-c2cc(Cl)ccc2C(C)=O)cc1=O (stereo not drawn) [Example 1, 5-(2-(4-(2-acetyl-5-chlorophenyl)-5-methoxy-2-oxopyridin-1(2H)-yl)-4-methoxybutanamido)-1H-indole-2-carboxylic acid] | – | 4.4 µM
COCC[C@@H](C(=O)Nc1ccc2[nH]c(C(=O)O)cc2c1)n1cc(OC)c(-c2cc(Cl)ccc2C(C)=O)cc1=O [Example 2, (S)-5-(2-(4-(2-acetyl-5-chlorophenyl)-5-methoxy-2-oxopyridin-1(2H)-yl)-4-methoxybutanamido)-1H-indole-2-carboxylic acid] | – | 2.9 µM
COCC[C@H](C(=O)Nc1ccc2[nH]c(C(=O)O)cc2c1)n1cc(OC)c(-c2cc(Cl)ccc2C(C)=O)cc1=O [Example 3, (R)-5-(2-(4-(2-acetyl-5-chlorophenyl)-5-methoxy-2-oxopyridin-1(2H)-yl)-4-methoxybutanamido)-1H-indole-2-carboxylic acid] | – | >10000 µM
COc1cn([C@@H](Cc2ccccc2)C(=O)Nc2ccc(C(=O)O)cc2)c(=O)cc1-c1cc(Cl)ccc1C(C)=O [Example 5, (S)-4-(2-(4-(2-acetyl-5-chlorophenyl)-5-methoxy-2-oxopyridin-1(2H)-yl)-3-phenylpropanamido)benzoic acid] | – | 2.0 µM
COc1cn([C@H](Cc2ccccc2)C(=O)Nc2ccc(C(=O)O)cc2)c(=O)cc1-c1cc(Cl)ccc1C(C)=O [Example 6, (R)-4-(2-(4-(2-acetyl-5-chlorophenyl)-5-methoxy-2-oxopyridin-1(2H)-yl)-3-phenylpropanamido)benzoic acid] | – | >10000 µM
CCC(=O)c1ccc(Cl)cc1-c1cc(=O)n(C(Cc2ccccc2)C(=O)Nc2ccc(C(=O)O)cc2)cc1OC (stereo not drawn) [Example 8, 4-(2-(4-(5-chloro-2-propionylphenyl)-5-methoxy-2-oxopyridin-1(2H)-yl)-3-phenylpropanamido)benzoic acid] | – | 6.4 µM
CCC(=O)c1ccc(Cl)cc1-c1cc(=O)n([C@@H](Cc2ccccc2)C(=O)Nc2ccc(C(=O)O)cc2)cc1OC [Example 9, (S)-4-(2-(4-(5-chloro-2-propionylphenyl)-5-methoxy-2-oxopyridin-1(2H)-yl)-3-phenylpropanamido)benzoic acid] | – | 2.4 µM
COc1cn([C@@H](Cc2ccccc2)C(=O)Nc2ccc(C(N)=O)cc2)c(=O)cc1-c1cc(Cl)ccc1C(C)=O [Example 11, (S)-4-(2-(4-(2-acetyl-5-chlorophenyl)-5-methoxy-2-oxopyridin-1(2H)-yl)-3-phenylpropanamido)benzamide] | – | 4.2 µM
CNC(=O)c1ccc(NC(=O)[C@H](Cc2ccccc2)n2cc(OC)c(-c3cc(Cl)ccc3C(C)=O)cc2=O)cc1 [Example 13, (S)-4-(2-(4-(2-acetyl-5-chlorophenyl)-5-methoxy-2-oxopyridin-1(2H)-yl)-3-phenylpropanamido)-N-methylbenzamide] | – | 6.0 µM
COc1cn([C@@H](Cc2ccccc2)C(=O)Nc2ccc3nn(C)cc3c2)c(=O)cc1-c1cc(Cl)ccc1C(C)=O [Example 20, (S)-2-(4-(2-acetyl-5-chlorophenyl)-5-methoxy-2-oxopyridin-1(2H)-yl)-N-(2-methyl-2H-indazol-5-yl)-3-phenylpropanamide] | – | 6.5 µM
COc1cn([C@@H](Cc2ccccc2)C(=O)Nc2ccc(C(=O)O)cc2)c(=O)cc1-c1c(C(C)=O)ccc(Cl)c1F [Example 31, (S)-4-(2-(4-(6-acetyl-3-chloro-2-fluorophenyl)-5-methoxy-2-oxopyridin-1(2H)-yl)-3-phenylpropanamido)benzoic acid] | – | 8.5 µM
CCNC(=O)c1ccc(NC(=O)[C@H](Cc2ccccc2)n2cc(OC)c(-c3cc(Cl)ccc3C(C)=O)cc2=O)cc1 [Example 37, (S)-4-(2-(4-(2-acetyl-5-chlorophenyl)-5-methoxy-2-oxopyridin-1(2H)-yl)-3-phenylpropanamido)-N-ethylbenzamide] | – | 7.8 µM
COc1cn(C(Cc2ccccc2)C(=O)Nc2ccc(C(=O)O)cc2)c(=O)cc1-c1cc(Cl)ccc1C(=O)CC1CC1 (stereo not drawn) [Example 39, 4-(2-(4-(5-chloro-2-(2-cyclopropylacetyl)phenyl)-5-methoxy-2-oxopyridin-1(2H)-yl)-3-phenylpropanamido)benzoic acid] | – | 8.3 µM
COc1cn([C@@H](Cc2ccccn2)C(=O)Nc2ccc(C(=O)O)cc2)c(=O)cc1-c1cc(Cl)ccc1C(C)=O [Example 80, (S)-4(2-(4-(2-acetyl-5-chlorophenyl)-5-methoxy-2-oxopyridin-1(2H)-yl)-3-(pyridin-2-yl)propanamido)benzoic acid] | – | 7.9 µM
COc1cn([C@H](Cc2ccccn2)C(=O)Nc2ccc(C(=O)O)cc2)c(=O)cc1-c1cc(Cl)ccc1C(C)=O [Example 81, (R)-4-(2-(4-(2-acetyl-5-chlorophenyl)-5-methoxy-2-oxopyridin-1(2H)-yl)-3-(pyridin-2-yl)propanamido)benzoic acid] | – | >10000 µM
COc1cn([C@@H](Cc2ccccn2)C(=O)Nc2ccc(C(N)=O)cc2)c(=O)cc1-c1cc(Cl)ccc1C(C)=O [Example 85, (S)-4-(2-(4-(2-acetyl-5-chlorophenyl)-5-methoxy-2-oxopyridin-1(2H)-yl)-3-(pyridin-2-yl)propanamido)benzamide] | – | 6.5 µM
COc1cn([C@@H](Cc2cccc(C#N)c2)C(=O)Nc2ccc(C(=O)O)cc2)c(=O)cc1-c1cc(Cl)ccc1C(C)=O [Example 89, (S)-4-(2-(4-(2-acetyl-5-chlorophenyl)-5-methoxy-2-oxopyridin-1(2H)-yl)-3-(3-cyanophenyl)propanamido)benzoic acid] | – | 5.7 µM
CCC(=O)c1ccc(Cl)cc1-c1cc(=O)n(C(Cc2ccn(C3CC3)n2)C(=O)Nc2ccc(C(=O)O)cc2)cc1OC (stereo not drawn) [Example 91, 4-(2-(4-(5-chloro-2-propionylphenyl)-5-methoxy-2-oxopyridin-(2H)-yl)-3-(1-cyclopropyl-1H-pyrazol-3-yl)propanamido)benzoic acid] | – | 2.1 µM
CCC(=O)c1ccc(Cl)cc1-c1cc(=O)n([C@@H](Cc2ccn(C3CC3)n2)C(=O)Nc2ccc(C(=O)O)cc2)cc1OC [Example 92, (S)-4-(2-(4-(5-chloro-2-propionylphenyl)-5-methoxy-2-oxopyridin-1(2H)-yl)-3-(1-cyclopropyl-1H-pyrazol-3-yl)propanamido)benzoic acid] | – | 1.2 µM
COc1cn(C(Cc2ccn(C3CC3)n2)C(=O)Nc2ccc(C(=O)O)cc2)c(=O)cc1-c1cc(Cl)ccc1C(C)=O (stereo not drawn) [Example 93, 4-(2-(4-(2-acetyl-5-chlorophenyl)-5-methoxy-2-oxopyridin-1(2H)-yl)-3-(1-cyclopropyl-1H-pyrazol-3-yl)propanamido)benzoic acid] | – | 2.9 µM
